Laboratory results published in PMC8778818, “Synthesis, Structural Characterization and Anticancer Activity of New 5-Trifluoromethyl-2-thioxo-thiazolo[4,5-d]pyrimidine Derivatives” (Pharmaceuticals, 2022).

Columns and labels:
HaCaT = assay: MTT cell viability assay, HaCaT; format: cell-based, human; details: 72 h; for IC50: Homo sapiens, HaCaT normal cells, MTT, mean ± SD; for cytotoxic effect (in words): HaCaT human keratinocytes
Method: (§1) Twelve compounds (2a-e, 3a-d and 4a-c) at a concentration range of 50–5000 μM were tested for their antiproliferative potential against four human cancer cell lines (A375—melanotic melanoma, C32—amelanotic melanoma, DU145—prostate cancer androgen-independent, MCF-7/WT—breast adenocarcinoma) and two normal cell lines: Chinese Hamster Ovary (CHO-K1) and immortalized human keratinocytes from histologically normal skin (HaCaT).
(§2) To determine the antiproliferative activity of newly synthesized compounds, the following cell lines were used: human melanotic melanoma cell line (A375), human amelanotic melanoma cell line (C32), human breast adenocarcinoma cell line (MCF-7/WT), human prostate cancer androgen-independent (DU145) and two normal cell lines: hamster ovarian (CHO-K1) and immortalized human keratinocytes from histologically normal skin (HaCaT). The cells were obtained from the cell line bank of the Department of Molecular and Cellular Biology, Wroclaw Medical University. A375, C32, MCF-7/WT, DU145 and HaCaT cells were grown in a monolayer cultured in Dulbecco’s Modified Eagle’s Medium (DMEM, Sigma-Aldrich, Poznań, Poland), supplemented with 10% of fetal bovine serum (FBS, Gibco, Paisley, UK) and 1% of antibiotics (penicillin/streptomycin, Sigma-Aldrich) and CHO-K1 were grown in HAM’s F-12 medium (Sigma-Aldrich), supplemented with 10% fetal bovine serum (FBS, Gibco) and 1% of antibiotics (penicillin/streptomycin, Sigma-Aldrich). Cell lines were cultured in the polystyrene flasks 25 or 75 cm^2 (Thermo Fisher Scientific, Waltham, MA, USA), which were stored in 37 °C and 5% CO2 in a humidified 95% atmosphere (SteriCult, Thermo Scientific, Alab). The cell medium was exchanged twice a week. The exponentially growing cells were used throughout the experiments. The cells were rinsed with phosphate-buffered saline (PBS, Sigma-Aldrich) and trypsinized by Trypsin-EDTA 0.25% solution (Sigma-Aldrich).
(§3) The influence of the compounds was performed in a monolayer culture on cancer and normal cells. Compounds were initially dissolved in DMSO; further dilutions of the compound were performed in Dulbecco’s Modified Eagle’s Medium supplemented with 10% FBS. Compounds were tested in a 50–5000 µM concentration range. In the in vitro experiments, the concentrations of DMSO in the final solution of the compounds were used 0.05%; 0.1%; 0.5%; 1%, respectively.
(§4) Cell viability was determined using the MTT colorimetric assay. All cell lines were seeded into 96-well plates to a density of 3 × 10^4 cells/well. After 24 h, the culture supernatants were removed and appropriate dilutions of compounds in the culture medium (200 µL/well) were added to the cells’ monolayer cultures and incubated for an additional 72 h. After 72 h of exposition to the compounds and the removal of the culture medium, cell viability was determined by reducing the yellow dye 3-(4,5-dimethyl-2-thiazol)-2,5-diphenyl-2H-tetrazolium bromide (MTT assay, Sigma Saint Louis, MO, USA; In Vitro Toxicology Assay) to a blue formazan product. The absorbance of the resulting solutions in three duplicate experiments was measured at the wavelength of 560 nm in a microplate reader (EnSpire, Perkin Elmer, Kraków, Poland). MTT assay is a colorimetric method that estimates the rate of metabolism in viable cells. Absorbance is directly proportional to the number of viable cells. All the experiments were performed three times and the mean absorbance values were calculated. The methodology for the evaluation of the growth of human cancer and normal cells was described previously. The cell viability in each group was expressed as a percentage of control (untreated) cells.

DU145 = assay: MTT cell viability assay, DU145; format: cell-based, human; details: for IC50: Homo sapiens, DU-145, DU145, MTT, 72 h, mean ± SD; for cytotoxic effect (in words): DU145, 72 h
Method: as §1, §2, §3, §4

C32 = assay: MTT cell viability assay, C32; format: cell-based, human; details: for IC50: Homo sapiens, C32, MTT, 72 h, mean ± SD; for cytotoxic effect (in words): C32, 72 h
Method: as §1, §2, §3, §4

MCF-7/WT = assay: MTT cell viability assay, MCF-7/WT; format: cell-based; details: Homo sapiens, MCF7, 72 h, mean ± SD
Method: as §1, §2, §3, §4

[1] = tested on: A375, C32, DU145, MCF-7/WT, CHO-K1 and HaCaT cell lines; assay: MTT cell viability assay, all six cell lines; format: cell-based; details: mean over the six cell lines; read-out: Mean A: the mean IC50 for the given compound
Method: as §1, §2, §3, §4

CHO-K1 = assay: MTT cell viability assay, CHO-K1; format: cell-based, Chinese Hamster; details: CHO-K1 normal cells, 72 h; for IC50: Cricetulus griseus, MTT, mean ± SD
Method: as §1, §2, §3, §4

A375 = assay: MTT cell viability assay, A375; format: cell-based, human; details: A375, MTT, mean ± SD
Method: as §1, §2, §3, §4

HOP-92 = tested on: HOP-92; set-up: method as in PMID 579132; details: NS Cell Lung C. HOP-92, 10^−5 M one dose; cited from earlier work
[2] = tested on: 60 human cancer cell lines; set-up: method as in PMID 579132; details: cited from earlier work; for Mean Growth %: 10^−5 M one dose, mean over the panel, analogs I–VII; for N2: number of cell lines giving positive log TGI (≤−4.01): of N = 59 tested cell lines; for N2: number of cell lines giving positive log TGI (≤−4.01) / log GI50 Range / log LC50 Range / log TGI Range: analogs IV and V; for log GI50 Range / log LC50 Range / log TGI Range: values > −4.00 excluded
UO-31 = tested on: UO-31; set-up: method as in PMID 579132; details: Renal C. UO-31, 10^−5 M one dose; cited from earlier work
RPMI-8226 = tested on: RPMI-8226; set-up: method as in PMID 579132; details: Leukemia, 10^−5 M one dose; cited from earlier work
UACC-62 = tested on: UACC-62; set-up: method as in PMID 579132; details: Melanoma UACC-62, 10^−5 M one dose; cited from earlier work
SF-295 = tested on: SF-295; set-up: method as in PMID 579132; details: CNS C. SF-295, 10^−5 M one dose; cited from earlier work
CAKI-1 = tested on: CAKI-1; set-up: method as in PMID 579132; details: Renal C. CAKI-1, 10^−5 M one dose; cited from earlier work

| SMILES | IC50 (DU145) [µM] | IC50 (MCF-7/WT) [µM] | IC50 (A375; Homo sapiens, A-375, 72 h) [µM] | IC50 (HaCaT) [µM] | IC50 (C32) [µM] | IC50 [1] [µM] | IC50 (CHO-K1) [µM] | Mean Growth % [2] [%] | also measured |
| --- | --- | --- | --- | --- | --- | --- | --- | --- | --- |
| O=c1[nH]c(-c2cccnc2)nc2c1sc(=S)n2-c1ccccc1 [III] | – | – | – | – | – | – | – | 105.59 | Growth % of the most sensitive cell line (HOP-92): 73.81% |
| O=c1[nH]c(-c2ccc(F)cc2)nc2c1sc(=S)n2-c1ccccc1 [II] | – | – | – | – | – | – | – | 106.11 | Growth % of the most sensitive cell line (HOP-92): 55.97% |
| S=c1sc2c(Cl)nc(-c3cccnc3)nc2n1-c1ccccc1 [IV] | – | – | – | – | – | – | – | 20.78 | Growth % of the most sensitive cell line (UO-31): −85.59%; log TGI Δ ([2]; logarithmic difference between most sensible cell line and MG_MID, analog IV): 1.12; N2: number of cell lines giving positive log TGI (≤−4.01) [2]: 7; log GI50 Range [2]: −5.28 to −6.26 log M; log LC50 Range [2]: −5.17 to −5.26 log M; log TGI Range [2]: −4.52 to −5.51 log M |
| O=c1[nH]c(-c2ccc(Cl)cc2)nc2c1sc(=S)n2-c1ccccc1 [I] | – | – | – | – | – | – | – | 80.85 | Growth % of the most sensitive cell line (RPMI-8226): 29.76% |
| Fc1ccc(CNc2nc(-c3ccc(F)cc3)nc3c2sc(=S)n3-c2ccccc2)cc1 [VII] | – | – | – | – | – | – | – | 89.50 | Growth % of the most sensitive cell line (UACC-62): 54.52% |
| Fc1ccc(CNc2nc(-c3ccc(Cl)cc3)nc3c2sc(=S)n3-c2ccccc2)cc1 [VI] | – | – | – | – | – | – | – | 48.46 | Growth % of the most sensitive cell line (SF-295): −43.11% |
| Fc1ccc(-c2nc(Cl)c3sc(=S)n(-c4ccccc4)c3n2)cc1 [V] | – | – | – | – | – | – | – | – | Growth % of the most sensitive cell line (CAKI-1): −88.95%; N2: number of cell lines giving positive log TGI (≤−4.01) [2]: 49; log GI50 Range [2]: −4.23 to −8.00 log M; log LC50 Range [2]: −4.07 to −5.42 log M; log TGI Range [2]: −4.10 to −5.90 log M |

The next lines start with results.

| IC50 (DU145) [µM] | IC50 (MCF-7/WT) [µM] | IC50 (A375; Homo sapiens, A-375, 72 h) [µM] | SMILES | IC50 (HaCaT) [µM] | IC50 (C32) [µM] | IC50 [1] [µM] | IC50 (CHO-K1) [µM] | Mean Growth % [2] [%] | also measured |
| --- | --- | --- | --- | --- | --- | --- | --- | --- | --- |
| 251 ± 10.2 | 519 ± 21.1 | 429 ± 17.5 | CCn1c(=S)sc2c(=O)[nH]c(C(F)(F)F)nc21 [Compound 2a, 3-ethyl-2-thioxo-5-(trifluoromethyl)-2,3-dihydro[1, 3]thiazolo[4,5-d]pyrimidin-7(6H)-one] | 615 ± 25 | 434 ± 17.7 | 462 | 521 ± 21.2 | – | – |
| 163 ± 6.4 | 420 ± 16.5 | 450 ± 17.6 | O=c1[nH]c(C(F)(F)F)nc2c1sc(=S)n2-c1ccccc1F [Compound 2c, 3-(2-fluoropheny)l-2-thioxo-5-(trifluoromethyl)-2,3-dihydro[1, 3]thiazolo[4,5-d]pyrimidin-7(6H)-one] | 543 ± 21.3 | 364 ± 14.3 | 411 | 525 ± 20.6 | – | melting point: 211 to 212 °C |
| 121 ± 5.1 | 519 ± 21.9 | 531 ± 22.4 | O=c1[nH]c(C(F)(F)F)nc2c1sc(=S)n2-c1cccc(F)c1 [Compound 2d, 3-(3-fluorophenyl)-2-thioxo-5-(trifluoromethyl)-2,3-dihydro[1, 3]thiazolo[4,5-d]pyrimidin-7(6H)-one] | 725 ± 30.6 | 384 ± 16.2 | 472 | 553 ± 23.3 | – | – |
| 139 ± 5 | 434 ± 15.5 | 379 ± 13.5 | O=c1[nH]c(C(F)(F)F)nc2c1sc(=S)n2-c1ccc(F)cc1 [Compound 2e, 3-(4-fluoropheny)l-2-thioxo-5-(trifluoromethyl)-2,3-dihydro[1, 3]thiazolo[4,5-d]pyrimidin-7(6H)-one] | 234 ± 8.3 | 355 ± 12.6 | 337 | 483 ± 17.2 | – | melting point: 259 to 260 °C |
| 72.5 ± 1.9 | 356 ± 9.1 | 142 ± 3.6 | CCn1c(=S)sc2c(Cl)nc(C(F)(F)F)nc21 [Compound 3a, 7-chloro-3-ethyl-5-(trifluoromethyl)[1, 3]thiazolo[4,5-d]pyrimidine-2(3H)-thione] | 88.3 ± 2.3 | 89.3 ± 2.3 | 145 | 122 ± 3.1 | – | melting point: 66 to 67 °C; cytotoxic effect (in words) (HaCaT): strong cytotoxic effect; cytotoxic effect (in words) (DU145): strong cytotoxic effect; cytotoxic effect (in words) (C32): strong cytotoxic effect |
| 168 ± 4 | 248 ± 6 | 108 ± 2.6 | Fc1ccccc1-n1c(=S)sc2c(Cl)nc(C(F)(F)F)nc21 [Compound 3c, 7-chloro-(2-fluoropheny)-5-(trifluoromethyl)[1, 3]thiazolo[4,5-d]pyrimidine-2(3H)-thione] | 37.8 ± 0.9 | 86.4 ± 2.1 | 124 | 93.8 ± 2.3 | – | cytotoxic effect (in words) (HaCaT): strong cytotoxic effect; cytotoxic effect (in words) (C32): strong cytotoxic effect; cytotoxic effect (in words) (CHO-K1): strong cytotoxic effect |
| 126 ± 4.2 | 540 ± 17.9 | 103 | Fc1cccc(-n2c(=S)sc3c(Cl)nc(C(F)(F)F)nc32)c1 [Compound 3d, 7-chloro-(3-fluoropheny)-5-(trifluoromethyl)[1, 3]thiazolo[4,5-d]pyrimidine-2(3H)-thione] | 360 ± 11.9 | 87.4 ± 2.9 | 288 | 512 ± 17 | – | cytotoxic effect (in words) (HaCaT): non-toxic; cytotoxic effect (in words) (C32): strong cytotoxic effect; cytotoxic effect (in words) (CHO-K1): non-toxic; IC50 (A375; 72 h): 104 ± 3.4 µM |
| 96.9 ± 3 | 144 ± 4.4 | 114 ± 3.5 | CNc1nc(C(F)(F)F)nc2c1sc(=S)n2-c1ccccc1 [Compound 4a, 7-(methylamino)-3-phenyl-5-(trifluoromethyl)[1, 3]thiazolo[4,5-d]pyrimidine-2(3H)-thione] | 748 ± 22.9 | 132 ± 4.1 | 214 | 48.5 ± 1.5 | – | melting point: 197 to 198 °C; cytotoxic effect (in words) (DU145): high cytotoxicity; cytotoxic effect (in words) (CHO-K1): high cytotoxicity |
